In publication doi:10.1101/2022.11.22.517505v1 (biorxiv, 2022):

How the values were obtained:
[1] = target: CSNK1E (Homo sapiens, UniProt P49674); assay: biochemical; details: read-out: % of control remaining
[2] = target: GSK3A (NanoLuc fusion, HEK293 cells) (Homo sapiens, UniProt P49840); assay: NanoBRET target engagement, tracer displacement, intact cells; type: cell-based
[3] = target: T1, PLK2 (Homo sapiens, UniProt Q9NYY3); assay: biochemical; details: read-out: % of control remaining
[4] = target: T2, GSK3A (Homo sapiens, UniProt P49840); assay: biochemical; details: read-out: % of control remaining
Target sequence in this assay (P49840 whole entry): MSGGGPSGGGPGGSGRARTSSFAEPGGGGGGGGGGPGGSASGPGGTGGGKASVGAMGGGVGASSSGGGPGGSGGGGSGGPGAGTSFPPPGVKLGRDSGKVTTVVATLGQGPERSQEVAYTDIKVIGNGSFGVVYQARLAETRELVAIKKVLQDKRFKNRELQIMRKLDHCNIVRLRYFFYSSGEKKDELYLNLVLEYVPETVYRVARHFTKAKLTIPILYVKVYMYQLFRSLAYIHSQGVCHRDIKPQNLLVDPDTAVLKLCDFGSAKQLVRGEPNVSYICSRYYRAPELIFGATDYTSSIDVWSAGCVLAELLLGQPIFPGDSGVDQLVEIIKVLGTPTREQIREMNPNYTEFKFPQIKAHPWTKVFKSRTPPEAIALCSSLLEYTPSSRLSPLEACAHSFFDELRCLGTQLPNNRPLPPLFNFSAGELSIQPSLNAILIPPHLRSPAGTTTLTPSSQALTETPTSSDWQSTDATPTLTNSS

[5] = target: PARP2 (Homo sapiens, UniProt Q9UGN5); assay: BPS PARP assay kit, biotin-NAD+ luminescence; type: biochemical; details: read-out: % inhibition at 10 μM
Sequence of PARP2 (Q9UGN5 whole entry): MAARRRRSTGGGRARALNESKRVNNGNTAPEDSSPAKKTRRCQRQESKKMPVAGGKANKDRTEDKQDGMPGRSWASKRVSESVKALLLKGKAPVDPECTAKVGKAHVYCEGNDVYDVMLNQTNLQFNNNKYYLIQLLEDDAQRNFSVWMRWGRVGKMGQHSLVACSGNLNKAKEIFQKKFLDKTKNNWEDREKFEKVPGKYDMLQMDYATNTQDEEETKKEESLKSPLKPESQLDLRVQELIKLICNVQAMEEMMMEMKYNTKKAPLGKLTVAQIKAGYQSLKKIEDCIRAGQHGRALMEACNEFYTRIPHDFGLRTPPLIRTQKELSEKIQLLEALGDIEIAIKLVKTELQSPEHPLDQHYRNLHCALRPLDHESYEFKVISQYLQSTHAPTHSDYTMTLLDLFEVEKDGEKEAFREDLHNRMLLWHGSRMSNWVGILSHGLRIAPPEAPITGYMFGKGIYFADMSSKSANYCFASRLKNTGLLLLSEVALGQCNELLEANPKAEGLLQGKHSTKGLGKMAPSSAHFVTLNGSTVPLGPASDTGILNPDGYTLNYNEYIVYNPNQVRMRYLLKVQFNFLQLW

[6] = target: PARP1 (Homo sapiens, UniProt P09874); assay: BPS PARP assay kit, biotin-NAD+ luminescence; type: biochemical; details: read-out: % inhibition at 10 μM
Sequence of PARP1 (P09874 2-1014): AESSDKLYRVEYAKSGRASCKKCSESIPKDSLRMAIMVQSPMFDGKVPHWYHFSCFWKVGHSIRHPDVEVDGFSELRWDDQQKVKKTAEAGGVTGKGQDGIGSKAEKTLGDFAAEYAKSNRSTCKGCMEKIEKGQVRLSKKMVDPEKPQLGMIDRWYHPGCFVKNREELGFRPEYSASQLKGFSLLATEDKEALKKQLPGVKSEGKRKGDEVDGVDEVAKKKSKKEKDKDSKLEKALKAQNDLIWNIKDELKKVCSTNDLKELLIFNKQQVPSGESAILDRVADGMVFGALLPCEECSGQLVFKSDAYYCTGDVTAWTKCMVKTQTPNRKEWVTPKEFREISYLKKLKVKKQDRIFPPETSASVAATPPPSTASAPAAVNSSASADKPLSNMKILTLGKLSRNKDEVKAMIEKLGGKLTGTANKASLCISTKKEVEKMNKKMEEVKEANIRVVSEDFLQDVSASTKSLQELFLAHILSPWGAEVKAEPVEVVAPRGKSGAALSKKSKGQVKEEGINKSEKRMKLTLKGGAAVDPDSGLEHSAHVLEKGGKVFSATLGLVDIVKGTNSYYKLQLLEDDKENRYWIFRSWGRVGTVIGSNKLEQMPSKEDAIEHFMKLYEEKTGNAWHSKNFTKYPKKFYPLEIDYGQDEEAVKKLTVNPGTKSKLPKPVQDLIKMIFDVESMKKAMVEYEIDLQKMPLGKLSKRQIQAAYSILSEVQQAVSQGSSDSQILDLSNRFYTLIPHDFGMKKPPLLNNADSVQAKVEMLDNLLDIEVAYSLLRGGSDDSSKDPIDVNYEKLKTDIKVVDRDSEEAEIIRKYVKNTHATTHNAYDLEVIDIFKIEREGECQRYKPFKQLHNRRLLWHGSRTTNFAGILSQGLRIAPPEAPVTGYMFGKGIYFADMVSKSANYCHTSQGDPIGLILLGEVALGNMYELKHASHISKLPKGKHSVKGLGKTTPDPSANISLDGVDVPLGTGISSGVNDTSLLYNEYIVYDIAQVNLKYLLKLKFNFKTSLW

[7] = target: PLK2 (NanoLuc fusion, HEK293 cells) (Homo sapiens, UniProt Q9NYY3); assay: NanoBRET target engagement, tracer displacement, intact cells; type: cell-based
Sequence of PLK2 (NanoLuc fusion, HEK293 cells) (Q9NYY3 whole entry, the tested form may be a part): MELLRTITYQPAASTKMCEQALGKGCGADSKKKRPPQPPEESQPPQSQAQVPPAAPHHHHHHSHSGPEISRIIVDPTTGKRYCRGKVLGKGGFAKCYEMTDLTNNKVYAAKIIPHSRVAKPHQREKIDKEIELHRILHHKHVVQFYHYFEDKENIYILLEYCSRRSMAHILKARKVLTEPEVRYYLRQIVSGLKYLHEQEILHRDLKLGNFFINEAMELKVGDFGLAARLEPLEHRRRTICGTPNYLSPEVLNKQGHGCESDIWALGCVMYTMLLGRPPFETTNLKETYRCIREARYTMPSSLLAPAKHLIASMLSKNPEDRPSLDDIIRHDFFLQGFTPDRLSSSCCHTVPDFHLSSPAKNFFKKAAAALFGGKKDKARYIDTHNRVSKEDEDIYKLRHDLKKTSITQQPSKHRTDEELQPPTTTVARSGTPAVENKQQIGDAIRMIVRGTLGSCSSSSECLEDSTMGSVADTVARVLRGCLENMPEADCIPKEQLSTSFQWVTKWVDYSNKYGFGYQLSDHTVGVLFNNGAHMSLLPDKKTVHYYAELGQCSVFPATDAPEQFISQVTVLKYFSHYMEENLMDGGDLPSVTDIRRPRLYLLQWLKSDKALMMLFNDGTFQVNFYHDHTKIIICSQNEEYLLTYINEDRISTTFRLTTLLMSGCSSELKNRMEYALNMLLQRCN

[8] = target: T3, GSK3B (Homo sapiens, UniProt P49841); assay: biochemical; details: read-out: % of control remaining
T3 sequence (P49841 whole entry): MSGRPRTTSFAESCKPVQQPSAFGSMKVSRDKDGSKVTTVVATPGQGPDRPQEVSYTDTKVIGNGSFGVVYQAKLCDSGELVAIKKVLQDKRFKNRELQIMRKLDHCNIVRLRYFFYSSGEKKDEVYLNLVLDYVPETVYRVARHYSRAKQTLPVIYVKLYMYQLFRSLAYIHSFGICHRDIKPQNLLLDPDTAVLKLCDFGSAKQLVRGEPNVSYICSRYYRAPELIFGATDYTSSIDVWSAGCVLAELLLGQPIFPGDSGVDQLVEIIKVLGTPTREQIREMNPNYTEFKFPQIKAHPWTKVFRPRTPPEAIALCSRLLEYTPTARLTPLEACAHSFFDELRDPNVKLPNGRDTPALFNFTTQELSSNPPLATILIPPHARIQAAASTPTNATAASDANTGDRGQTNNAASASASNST

[9] = target: T2, GSK3A; assay: HotSpot radiometric […]-ATP kinase assay; type: biochemical
Target sequence in this assay (P49840 2-483): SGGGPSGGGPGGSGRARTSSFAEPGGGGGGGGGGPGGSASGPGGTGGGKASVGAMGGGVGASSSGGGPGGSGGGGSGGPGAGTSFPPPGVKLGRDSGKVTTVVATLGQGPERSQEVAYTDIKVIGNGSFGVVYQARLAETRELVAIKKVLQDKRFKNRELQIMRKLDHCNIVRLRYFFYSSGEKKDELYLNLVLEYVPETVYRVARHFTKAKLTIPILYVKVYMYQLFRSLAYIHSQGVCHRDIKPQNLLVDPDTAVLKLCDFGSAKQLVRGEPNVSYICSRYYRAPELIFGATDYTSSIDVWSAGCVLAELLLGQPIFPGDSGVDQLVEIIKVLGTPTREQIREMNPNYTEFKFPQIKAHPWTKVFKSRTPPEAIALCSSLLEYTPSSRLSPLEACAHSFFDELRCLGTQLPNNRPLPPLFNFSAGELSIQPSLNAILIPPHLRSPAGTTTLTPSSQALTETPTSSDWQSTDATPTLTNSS

[10] = target: T1, PLK2; assay: HotSpot radiometric […]-ATP kinase assay; type: biochemical
[11] = target: T3, GSK3B; assay: HotSpot radiometric […]-ATP kinase assay; type: biochemical
[12] = target: T2, GSK3A; assay: HotSpot radiometric […]-ATP kinase assay; type: biochemical; details: remaining activity, mean of two replicates
Target sequence in this assay (P49840 2-483): as above

[13] = target: T3, GSK3B; assay: HotSpot radiometric […]-ATP kinase assay; type: biochemical; details: remaining activity, mean of two replicates
[14] = target: T1, PLK2; assay: HotSpot radiometric […]-ATP kinase assay; type: biochemical; details: remaining activity, mean of two replicates

T1 sequence (Q9NYY3 whole entry): as the sequence (Q9NYY3 whole entry, the tested form may be a part) above
Sequence of CSNK1E (P49674 whole entry, the tested form may be a part): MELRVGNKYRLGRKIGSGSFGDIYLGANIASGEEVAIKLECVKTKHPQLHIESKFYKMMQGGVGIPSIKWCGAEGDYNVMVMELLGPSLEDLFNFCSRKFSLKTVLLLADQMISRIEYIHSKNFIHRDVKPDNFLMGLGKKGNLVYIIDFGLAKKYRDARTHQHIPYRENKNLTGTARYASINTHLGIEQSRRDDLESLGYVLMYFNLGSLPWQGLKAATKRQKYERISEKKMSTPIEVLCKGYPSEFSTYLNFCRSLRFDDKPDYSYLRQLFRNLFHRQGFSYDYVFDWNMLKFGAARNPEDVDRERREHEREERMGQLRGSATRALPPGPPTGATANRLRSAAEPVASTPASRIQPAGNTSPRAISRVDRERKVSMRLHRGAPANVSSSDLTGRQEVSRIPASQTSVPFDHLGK
Sequence of GSK3A (NanoLuc fusion, HEK293 cells) (P49840 2-483): as the sequence (P49840 2-483) above

remaining activity at 1 µM [1] [%]	EC50 [2] [nM]	remaining activity at 1 µM [3] [%]	remaining activity at 1 µM [4] [%]	inhibition at 10 µM [5] [%]	inhibition at 10 µM [6] [%]	EC50 [7] [nM]	remaining activity at 1 µM [8] [%]	IC50 [9] [nM]	IC50 [10] [nM]	IC50 [11] [nM]	Enzyme activity (%) at 1 μM [12] [%]	Enzyme activity (%) at 1 μM [13] [%]	Enzyme activity (%) at 1 μM [14] [%]	SMILES
102	15000	40.7	34.4	100	100	5080	63.1	579	591	2000				O=C(O)c1ccc(-c2[nH]c3cc(F)cc4c3c2CCNC4=O)cc1 [M324]
103											74.15	35.38	88.95	CNCc1ccc(-c2[nH]c3cc(F)cc4c3c2CCNC4=O)cc1 [rucaparib]
